Experimental findings from patent US4018895A, “Aryloxyphenylpropylamines in treating depression” (Eli Lilly and Company, priority 1975, dated 1977) are described below.

Assay [1] deals with dopamine uptake by synaptosomes from rat brain. Briefly: In vitro blockade of dopamine uptake by synaptosomes from rat brain. The format is biochemical. To be noted: Table 1, scaffold drawing 3; dopamine 0.2 μM. From the text: (§1) This blockade is shown both in vitro with radioactive labelled compounds to determine the amount of monoamine uptake by synaptosomes from rat brain, and in vivo by a variety of methods. Among the physiologically active monoamines whose uptake is blocked by the compounds of this invention are included serotonin, norepinephrine and dopamine (3,4-dihydroxyphenylethylamine). […] Tables 1 and 2 which follow set forth the results of some of the in vitro determinations of the blockage of monoamine uptake by the compounds of this invention. In the tables, column 1 gives the R substituent on the 3-phenylpropylamine and columns 2-4, the concentration in micrograms per ml. that blocks the uptake of a particular amine by 50 percent for the amines--norephinephrine, serotonin, and dopamine. At the head of each column is given the concentration of the particular monoamine used in the experiment.

For assay [2], the system named is serotonin uptake by synaptosomes from rat brain. Briefly: In vitro blockade of serotonin uptake by synaptosomes from rat brain. The format is biochemical. The settings on record: Table 1, scaffold drawing 3; serotonin 0.1 μM.
Description: as §1

The test system of assay [3] is norepinephrine uptake by synaptosomes from rat brain. Briefly: In vitro blockade of norepinephrine uptake by synaptosomes from rat brain. The settings on record: Table 1, scaffold drawing 3; norepinephrine 0.48 μM. It is filed as biochemical.
Description: as §1

The test system of assay [4] is hypothermia induced by the injection of apomorphine. Nature of the assay: Apomorphine hypothermia antagonism test. The format is in vivo, mice. To be noted: for Activity in antagonism of apomorphine hypothermia: in words. On the procedure:
The apomorphine hypothermia antagonism test is carried out as follows: mice are injected with a dose of apomorphine known to reduce body temperature approximately 4° C. […] The degree of antagonism is expressed as a percent reduction (as compared with controls) of the temperature decrease produced by the injection of the apomorphine. The reserpine hypothermia reversal test is carried out as follows: groups of mice are injected with reserpine and 16.5 hours later are injected intraperitoneally with graded doses of the drug, a different dose level being given to each group of mice. Temperatures are measured at 1 hour after injection of the drug under test and again the effectiveness of the drug is expressed as a percentage decrease in the hypothermia induced by the injection of reserpine as compared with the control group. In the tablets which follow, Table 4 gives the results in the apomorphine antagonism and reserpine reversal hypothermia tests for the secondary amines of this invention. In the table, the first column gives the substituent attached to the oxygen atom at the 3 position of the propylamine chain; columns 2 to 4 the percent antagonism against apomorphine hypothermia at dose levels of 0.3, 1 and 3 mg./kg. and columns 5-7 the percent reversal of reserpine hypothermia at the same dose levels.

The subject of assay [5] is hypothermia induced by the injection of reserpine. Briefly: Reserpine hypothermia reversal test. The format is in vivo, mice. The settings on record: for Activity in reversal of reserpine hypothermia: in words; for inhibition in vivo at 3 mg/kg / inhibition in vivo at 10 mg/kg / inhibition in vivo at 1 mg/kg / inhibition in vivo at 0.3 mg/kg: Mus musculus, ip, 1 h, Post-60 min., mice, read-out: Percent Antagonism Reserpine; for inhibition in vivo at 3 mg/kg: 3 mg./kg. intraperitoneally; for inhibition in vivo at 10 mg/kg: 10 mg./kg. intraperitoneally; for inhibition in vivo at 1 mg/kg: 1 mg./kg. intraperitoneally; for inhibition in vivo at 0.3 mg/kg: .3 mg./kg. intraperitoneally. On the procedure:
The apomorphine hypothermia antagonism test is carried out as follows: mice are injected with a dose of apomorphine known to reduce body temperature approximately 4° C. The compound under test is injected 1/2 hour before the injection of the apomorphine and the temperatures measured 1/2 hour after injection. The degree of antagonism is expressed as a percent reduction (as compared with controls) of the temperature decrease produced by the injection of the apomorphine. The reserpine hypothermia reversal test is carried out as follows: groups of mice are injected with reserpine and 16.5 hours later are injected intraperitoneally with graded doses of the drug, a different dose level being given to each group of mice. Temperatures are measured at 1 hour after injection of the drug under test and again the effectiveness of the drug is expressed as a percentage decrease in the hypothermia induced by the injection of reserpine as compared with the control group. In the tablets which follow, Table 4 gives the results in the apomorphine antagonism and reserpine reversal hypothermia tests for the secondary amines of this invention. In the table, the first column gives the substituent attached to the oxygen atom at the 3 position of the propylamine chain; columns 2 to 4 the percent antagonism against apomorphine hypothermia at dose levels of 0.3, 1 and 3 mg./kg. and columns 5-7 the percent reversal of reserpine hypothermia at the same dose levels.

[6] abbreviates: Mus musculus, Table 5, dimethylamino compounds, Pre-30 min., mice, read-out: Percent Antagonism Apomorphine.
[7] abbreviates: Table 5, dimethylamino compounds.
The mark [8] stands for this setting: Mus musculus, Table 4, secondary amines, Pre-30 min., mice, read-out: Percent Antagonism Apomorphine.

Like-named read-outs stand apart in the source and are kept apart here.

`Cc1cc(F)ccc1OC(CCN(C)C)c1ccccc1.O=C(O)C(=O)O` (centres unmarked) [4-fluoro-o-tolyl, N,N-dimethyl 3-(p-fluoro-o-tolyloxy)-3-phenylpropylamine oxalate]: the “Concentration that blocks 50% of amine uptake, Dopamine” value in assay [1] turned out to be 40 mcq./ml. The “Concentration that blocks 50% of amine uptake, Serotonin” value in assay [2] is “.6 mcq./ml”. Also, the “Concentration that blocks 50% of amine uptake, Norepinephrine” value in assay [3] was 2.5 mcq./ml.
As to `CN(C)CCCN1c2ccccc2CCc2ccccc21` [imipramine, reference compound], the “Reduction of apomorphine hypothermia” value in assay [4] (10 mg./kg. dose, measured 60 minutes after injection of the apomorphine) worked out at 100%. Also, in assay [4], the “Activity in antagonism of apomorphine hypothermia” value is “active”. Also, in assay [5], the “Activity in reversal of reserpine hypothermia” value is listed as “active”.
For `CN(C)CCC(Oc1cccc(Cl)c1)c1ccccc1` (centres unmarked) [m-chlorophenyl], in assay [4] (setting [6]), the inhibition in vivo at 1 mg/kg was determined as 0%, the inhibition in vivo at 3 mg/kg is 13% and the inhibition in vivo at 10 mg/kg amounted to 66%.
With `COc1cccc(OC(CCN(C)C)c2ccccc2)c1.O=C(O)C(=O)O` (centres unmarked) [m-methoxyphenyl, N,N-dimethyl 3-phenyl-3-(m-methoxyphenoxy)propylamine oxalate], the “Concentration that blocks 50% of amine uptake, Dopamine” value in assay [1] was “.5 mcq./ml”. Moreover, the “Concentration that blocks 50% of amine uptake, Serotonin” value in assay [2] is listed as “.08 mcq./ml”. Besides, in assay [3], the “Concentration that blocks 50% of amine uptake, Norepinephrine” value is “.2 mcq./ml”.
The like results for `Cc1cccc(OC(CCN(C)C)c2ccccc2)c1.O=C(O)C(=O)O` (centres unmarked) [m-tolyl, N,N-dimethyl 3-phenyl-3-(m-tolyloxy)propylamine oxalate] were, in that order, more than 0 mcq./ml, “.7 mcq./ml” and 12 mcq./ml.
The like results for `CN(C)CCC(Oc1cccc(C(F)(F)F)c1)c1ccccc1.O=C(O)C(=O)O` (centres unmarked) [m-trifluoromethylphenyl, N,N-dimethyl 3-phenyl-3-(m-trifluoromethylphenoxy) propylamine oxalate] were, in that order, more than 100 mcq./ml, “.18 mcq./ml” and 8 mcq./ml.
Take `CNCCC=C1c2ccccc2CCc2ccccc21` [nortriptyline, reference compound]: in assay [4], the “Activity in antagonism of apomorphine hypothermia” value is “active”. Also, the “Activity in reversal of reserpine hypothermia” value in assay [5] is “active”.
For the compound `COc1ccccc1OC(CCN(C)C)c1ccccc1` (centres unmarked) [o-anisyl], in assay [4] (setting [6]), the inhibition in vivo at 1 mg/kg came out at 11%, the inhibition in vivo at 3 mg/kg is 30% and the inhibition in vivo at 10 mg/kg came out at 61%.
As to `CN(C)CCC(Oc1ccccc1Br)c1ccccc1.O=C(O)C(=O)O` (centres unmarked) [o-bromophenyl, N,N-dimethyl 3-(o-bromophenoxy)-3-phenylpropylamine oxalate], the “Concentration that blocks 50% of amine uptake, Dopamine” value in assay [1] is given as 5 mcq./ml. Moreover, in assay [4] (setting [6]), the inhibition in vivo at 1 mg/kg was 19%, the inhibition in vivo at 3 mg/kg is 40% and the inhibition in vivo at 10 mg/kg stood at 47%. Moreover, in assay [5] (setting [7]), the inhibition in vivo at 3 mg/kg turned out to be 18% and the inhibition in vivo at 10 mg/kg came to 30%. Besides, in assay [2], the “Concentration that blocks 50% of amine uptake, Serotonin” value is “.1 mcq./ml”.
Regarding `CN(C)CCC(Oc1ccccc1F)c1ccccc1` (centres unmarked) [o-fluorophenyl], in assay [4] (setting [6]), the inhibition in vivo at 1 mg/kg was -10%, the inhibition in vivo at 3 mg/kg stood at 11% and the inhibition in vivo at 10 mg/kg was found to be 31%.
With `CN(C)CCC(Oc1ccccc1C(C)(C)C)c1ccccc1.O=C(O)C(=O)O` (centres unmarked) [o-t-butylphenyl, N,N-dimethyl 3-phenyl-3-(o-t-butylphenoxy)propylamine oxalate], the “Concentration that blocks 50% of amine uptake, Dopamine” value in assay [1] is more than 100 mcq./ml. Besides, in assay [2], the “Concentration that blocks 50% of amine uptake, Serotonin” value is 40 mcq./ml. In addition, in assay [3], the “Concentration that blocks 50% of amine uptake, Norepinephrine” value was found to be 1.5 mcq./ml.
On to `Cc1ccccc1OC(CCN(C)C)c1ccccc1` (centres unmarked) [o-tolyl], for which, in assay [4] (setting [6]), the inhibition in vivo at 3 mg/kg is 11% and the inhibition in vivo at 10 mg/kg worked out at 94%.
On to `COc1ccc(OC(CCN(C)C)c2ccccc2)cc1` (centres unmarked) [p-anisyl], for which the inhibition in vivo at 10 mg/kg in assay [4] (setting [6]) stood at 25%.
In the case of `CN(C)CCC(Oc1ccc(Cl)cc1)c1ccccc1` (centres unmarked) [p-chlorophenyl], in assay [4] (setting [8]), the inhibition in vivo at 1 mg/kg came out at 29% and the inhibition in vivo at 3 mg/kg was 37%. For the same compound, in assay [4] (Mus musculus, Table 4, secondary amines, .3 mg./kg., Pre-30 min., mice, read-out: Percent Antagonism Apomorphine), the inhibition in vivo at 0.3 mg/kg turned out to be 32%. In assay [4] (setting [6]), the inhibition in vivo at 1 mg/kg worked out at 7%, the inhibition in vivo at 3 mg/kg worked out at 43% and the inhibition in vivo at 10 mg/kg stood at 85%.
As to `CN(C)CCC(Oc1ccc(F)cc1)c1ccccc1` (centres unmarked) [p-fluorophenyl], in assay [4] (setting [6]), the inhibition in vivo at 1 mg/kg is 26%, the inhibition in vivo at 3 mg/kg turned out to be 63% and the inhibition in vivo at 10 mg/kg came out at 116%. In addition, in assay [5] (Table 4, secondary amines), the inhibition in vivo at 1 mg/kg was 39%, the inhibition in vivo at 3 mg/kg is 32% and the inhibition in vivo at 0.3 mg/kg came out at 7%. In assay [5] (setting [7]), the inhibition in vivo at 1 mg/kg is 10%, the inhibition in vivo at 3 mg/kg is 24%, the inhibition in vivo at 10 mg/kg is 49% and the inhibition in vivo at 0.3 mg/kg is 14%.
`CN(C)CCC(Oc1ccc(C(F)(F)F)cc1)c1ccccc1` (centres unmarked) [p-trifluoromethylphenyl]: in assay [4] (setting [6]), the inhibition in vivo at 10 mg/kg was 24%.
Regarding `CN(C)CCC(Oc1ccc2ccccc2c1)c1ccccc1.O=C(O)C(=O)O` (stereo not drawn) [β-naphthyl, N,N-dimethyl 3-(β-naphthyloxy)-3-phenylpropylamine oxalate], the “Concentration that blocks 50% of amine uptake, Dopamine” value in assay [1] was 100 mcq./ml. Also, the “Concentration that blocks 50% of amine uptake, Serotonin” value in assay [2] turned out to be 1 mcq./ml. Further, the “Concentration that blocks 50% of amine uptake, Norepinephrine” value in assay [3] is listed as more than 100 mcq./ml.
